What was measured:
Assay type in all cases: cell-based
CCDC6-RET-BaF3 = biological target: T1, CCDC6-RET-BaF3 (Homo sapiens, UniProt P07949); test: Growth inhibition of CCDC6-RET-BaF3 cells stably transfected with kinase (MTS); settings: 48 h, read-out: CCDC6-RET (IC50/nM)
T1 construct: fused on or other part: Q16204 (Coiled-coil domain-containing protein 6)
Outline: (§1)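 IC50 derived from growth inhibition by MTS absorbance at 490 nm after 48 h compound exposure (top 10 μM, 1:3 steps, 8 points, 0.1% DMSO) of 2×10^4 RET-fusion (CCDC6-RET, KIF5B-RET) or wild-type BaF3 cells per well, in triplicate.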

KIF5B-RET-BaF3 = biological target: T2, KIF5B-RET-BaF3 (Homo sapiens, UniProt P07949); test: Growth inhibition of KIF5B-RET-BaF3 cells stably transfected with kinase (MTS); settings: 48 h, read-out: KIF5B-RET (IC50/nM)
T2 construct: fused on or other part: P33176 (Kinesin-1 heavy chain)
Outline: as §1

wild-type BaF3 = test: Growth inhibition of wild-type BaF3 cells, broad-spectrum toxicity (MTS); settings: Mus musculus, 48 h, read-out: WT Ba/F3 (IC50/nM)
Procedure: Growth inhibitory activity of compounds on cell lines stably transfected with kinase
The activity of compounds against kinase RET is evaluated by their effect of inhibiting growth of cell lines stably transfected with kinase CCDC6-RET-BaF3, KIF5B-RET-BaF3, and wild-type BaF3 (Proc. Natl. Acad. Sci. USA., 2006, 103, 3153-8.). The growth of the cell lines stably transfected with kinase CCDC6-RET-BaF3, KIF5B-RET-BaF3 depends on their kinase activity. If a compound can inhibit the activity of the kinase RET per se or the activity of the RET signaling pathway, the compound can inhibit the growth of BaF3 cells stably transfected with kinase. […] Therefore, a larger ratio between IC50 of a compound to wild-type BaF3 and IC50 of the compound to the cell lines stably transfected with kinase CCDC6-RET-BaF3, KIF5B-RET-BaF3 indicates better targeting.
The specific test method is given as follows:
1) Medium: DMEM (Dulbecco's modified eagle medium) or RPMI 1640 (containing 10% fetal bovine serum, 100 μg/mL ampicillin, 100 μg/mL streptomycin).
2) Reagents: MTS reaction solution (containing 2 mg/mL of MTS [3-(4,5-dimethylthiazol-2-yl)-5-(3-carboxymethoxyphenyl)-2-(4-sulfophenyl)-2H-tetrazolium, inner Salt]; 100 μg/mL PES (phenazine […])).
3) Compound test: cells stably transfected with kinase (CCDC6-RET-BaF3, KIF5B-RET-BaF3) or wild-type BaF3 cells (2×10^4 cells/well) were incubated into a 96-well culture plate, the volume of cell culture fluid was 90 μL, and then 10 μL of the compound at each gradient concentration was added (the highest concentration was 10 μM, which was diluted stepwise by ⅓, and 8 concentration points were set in total; the system contained 0.1% DMSO (dimethyl sulfoxide)). The cell plate with uniformly mixed compound was cultured in a cell culture incubator (37° C.; 5% CO2) for 48 h, then 20 μL of MTS reaction solution was added, uniformly mixed and incubated in the cell culture incubator (37° C.; 5% CO2) for 1-4 hr, OD values at 490 nm were measured by a microplate reader (VARIOSKAN FLASH, Thermo). Three parallels were set in each group of experiments, with 0.1% (a final concentration) DMSO as a negative control, and a medium without cells or compounds as a blank control. The cell growth inhibition rate was calculated by the following formula: Cell growth inhibition rate %=1−(ODexperimental group−ODblank group)/(ODnegative group−ODblank group)×100%
4) IC50 calculation: The semi-inhibitory concentration of the compound acting on cell growth was calculated using GradPad Prism 5 software according to the measured cell growth inhibition rate.

T2 sequence (P07949 whole entry, change not shown, the tested form may be a part): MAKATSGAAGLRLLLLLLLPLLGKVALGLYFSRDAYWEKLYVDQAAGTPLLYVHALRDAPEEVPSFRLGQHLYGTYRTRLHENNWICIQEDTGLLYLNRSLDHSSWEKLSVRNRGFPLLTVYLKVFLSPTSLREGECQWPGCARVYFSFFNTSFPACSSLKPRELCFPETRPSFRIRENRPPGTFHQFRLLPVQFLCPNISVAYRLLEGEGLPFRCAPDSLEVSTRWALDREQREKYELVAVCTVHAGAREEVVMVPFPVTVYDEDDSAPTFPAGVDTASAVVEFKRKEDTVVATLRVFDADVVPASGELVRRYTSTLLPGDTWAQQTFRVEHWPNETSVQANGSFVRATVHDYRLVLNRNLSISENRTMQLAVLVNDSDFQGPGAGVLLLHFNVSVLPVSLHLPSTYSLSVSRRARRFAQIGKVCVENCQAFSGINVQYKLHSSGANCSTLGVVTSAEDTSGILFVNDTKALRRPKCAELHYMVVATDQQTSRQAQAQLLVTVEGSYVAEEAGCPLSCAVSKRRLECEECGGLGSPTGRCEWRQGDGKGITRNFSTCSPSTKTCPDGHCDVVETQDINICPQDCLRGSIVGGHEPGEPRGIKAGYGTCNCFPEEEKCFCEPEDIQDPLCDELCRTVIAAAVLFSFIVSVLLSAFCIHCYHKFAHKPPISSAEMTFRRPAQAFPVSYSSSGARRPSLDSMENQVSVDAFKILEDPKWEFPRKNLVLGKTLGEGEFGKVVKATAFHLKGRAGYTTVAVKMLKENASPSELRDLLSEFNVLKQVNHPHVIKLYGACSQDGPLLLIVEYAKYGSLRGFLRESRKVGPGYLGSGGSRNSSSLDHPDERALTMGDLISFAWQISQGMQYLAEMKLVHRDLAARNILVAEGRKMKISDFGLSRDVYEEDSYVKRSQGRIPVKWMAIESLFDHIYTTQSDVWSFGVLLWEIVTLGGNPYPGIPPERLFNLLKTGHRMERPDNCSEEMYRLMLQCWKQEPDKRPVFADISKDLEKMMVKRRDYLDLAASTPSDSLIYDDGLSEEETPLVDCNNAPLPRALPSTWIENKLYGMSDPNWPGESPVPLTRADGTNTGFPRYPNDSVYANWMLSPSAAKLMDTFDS
T1 sequence (P07949 whole entry, change not shown, the tested form may be a part): as above

| Structure (SMILES) | GI50 (CCDC6-RET-BaF3) | GI50 (KIF5B-RET-BaF3) | IC50 (wild-type BaF3) |
| --- | --- | --- | --- |
| CN1CCN(Cc2ccc(C(=O)Nc3cc(Oc4nc(-c5ccsc5)nc5cc[nH]c45)ccc3Cl)cc2C(F)(F)F)CC1 [III-k-7] | 2960 nM | 1900 nM | 3720 nM |
| CN1CCN(Cc2ccc(C(=O)Nc3cc(Oc4nc(-c5ccsc5)nc5ccn(C)c45)ccc3Cl)cc2C(F)(F)F)CC1 [III-k-8] | 3460 nM | 3580 nM | 3990 nM |
| CN1CCN(Cc2ccc(C(=O)Nc3cc(Oc4nc(-c5ccc(O)cc5)nc5ccn(C)c45)ccc3Cl)cc2C(F)(F)F)CC1 [III-k-10] | 2300 nM | 2440 nM | 1440 nM |
| CN1CCN(Cc2ccc(C(=O)Nc3cc(Oc4nc(-c5ccc(Cl)cc5)nc5cc[nH]c45)ccc3Cl)cc2C(F)(F)F)CC1 [III-k-13] | 1450 nM | 1550 nM | 1600 nM |
| Cc1ccc(-c2nc(Oc3ccc(Cl)c(NC(=O)c4ccc(CN5CCN(C)CC5)c(C(F)(F)F)c4)c3)c3c(ccn3C)n2)cc1 [III-k-16] | 2090 nM | 3190 nM | 3630 nM |
| CN1CCN(Cc2ccc(C(=O)Nc3cc(Oc4nc(-c5ccccc5)nc5cc[nH]c45)ccc3Cl)cc2C(F)(F)F)CC1 [III-k-17] | 1410 nM | 2610 nM | 2630 nM |
| CN1CCN(Cc2ccc(C(=O)Nc3cc(Oc4nc(-c5ccccc5)nc5ccn(C)c45)ccc3Cl)cc2C(F)(F)F)CC1 [III-k-18] | 4120 nM | 3990 nM | 3890 nM |
| Cc1ccc(C(=O)Nc2ccc(CN3CCN(C)CC3)c(C(F)(F)F)c2)cc1Oc1nc(-c2ccccc2)nc2cc[nH]c12 [III-m-3] | 2710 nM | 2410 nM | 3100 nM |
| Cc1ccc(-c2nc(Oc3cc(C(=O)Nc4ccc(CN5CCN(C)CC5)c(C(F)(F)F)c4)ccc3C)c3[nH]ccc3n2)cc1 [III-m-4] | 2720 nM | 3860 nM | 3460 nM |
| Cc1ccc(C(=O)Nc2ccc(CN3CCN(C)CC3)c(C(F)(F)F)c2)cc1Oc1nc(-c2cccc(Cl)c2)nc2cc[nH]c12 [III-m-5] | 3760 nM | 4040 nM | 3920 nM |
| Cc1ccc(C(=O)Nc2ccc(CN3CCN(C)CC3)c(C(F)(F)F)c2)cc1Oc1nc(-c2ccc(Cl)cc2)nc2cc[nH]c12 [III-m-6] | 3770 nM | 3950 nM | 2790 nM |
| Cc1ccc(C(=O)Nc2ccc(CN3CCN(C)CC3)c(C(F)(F)F)c2)cc1Oc1nc(-c2cccc(O)c2)nc2cc[nH]c12 [III-m-7] | 1410 nM | 2350 nM | 4330 nM |
| Cc1ccc(-c2nc(Oc3cc(C(=O)Nc4ccc(CN5CCN(C)CC5)c(C(F)(F)F)c4)ccc3C)c3c(ccn3C)n2)cc1 [III-m-12] | 4020 nM | 4280 nM | 3580 nM |
| Cc1ccc(C(=O)Nc2ccc(CN3CCN(C)CC3)c(C(F)(F)F)c2)cc1Oc1nc(-c2cccc(Cl)c2)nc2ccn(C)c12 [III-m-13] | 3510 nM | 3000 nM | 3390 nM |
| Cc1ccc(C(=O)Nc2ccc(CN3CCN(C)CC3)c(C(F)(F)F)c2)cc1Oc1nc(-c2ccc(Cl)cc2)nc2ccn(C)c12 [III-m-14] | 2920 nM | 2720 nM | 3190 nM |
| Cc1ccc(C(=O)Nc2ccc(CN3CCN(C)CC3)c(C(F)(F)F)c2)cc1Oc1nc(-c2cccc(O)c2)nc2ccn(C)c12 [III-m-15] | 2960 nM | 3930 nM | 7210 nM |
| Cc1ccc(C(=O)Nc2ccc(CN3CCN(C)CC3)c(C(F)(F)F)c2)cc1Oc1nc(-c2ccc(O)cc2)nc2ccn(C)c12 [III-m-16] | 3670 nM | 4420 nM | 4360 nM |
| Cc1ccc(C(=O)Nc2ccc(CN3CCN(C)CC3)c(C(F)(F)F)c2)cc1Oc1nc(-c2ccsc2)nc2ccn(C)c12 [III-m-18] | 2960 nM | 2680 nM | 3510 nM |
| CNc1nc(Oc2cc(C(=O)Nc3ccc(CN4CCN(C)CC4)c(C(F)(F)F)c3)ccc2C)c2c(ccn2C)n1 [III-m-19] | 2510 nM | 3270 nM | 4020 nM |
| Cc1ccc(C(=O)Nc2ccc(CN3CCN(C)CC3)c(C(F)(F)F)c2)cc1Oc1nc(N2CCOCC2)nc2ccn(C)c12 [III-m-20] | 2960 nM | 2500 nM | 3550 nM |
| Cc1ccc(C(=O)Nc2ccc(CN3CCN(C)CC3)c(C(F)(F)F)c2)cc1Oc1nc(N2CC(C)OC(C)C2)nc2ccn(C)c12 (stereo not drawn) [III-m-21] | 3490 nM | 3750 nM | 2920 nM |
| Cc1ccc(C(=O)Nc2ccc(CN3CCN(C)CC3)c(C(F)(F)F)c2)cc1Oc1nc(N(C)C)nc2ccn(C)c12 [III-m-24] | 3120 nM | 3230 nM | 3080 nM |
| CN1CCN(Cc2ccc(NC(=O)c3cc(Oc4nc(-c5cccnc5)nc5cc[nH]c45)ccc3Cl)cc2C(F)(F)F)CC1 [III-o-1] | 2150 nM | 1550 nM | 1630 nM |
| CN1CCN(Cc2cc(NC(=O)c3cccc(Oc4nc(-c5cccnc5)nc5cc[nH]c45)c3)cc(C(F)(F)F)c2)CC1 [III-p-1] | 4400 nM | 2920 nM | 3550 nM |
| CN1CCN(Cc2cc(NC(=O)c3cccc(Oc4nc(-c5ccncc5)nc5ccn(C)c45)c3)cc(C(F)(F)F)c2)CC1 [III-p-4] | 3230 nM | 3650 nM | > 10000 nM |

More lines, main results first:

| GI50 (CCDC6-RET-BaF3) | GI50 (KIF5B-RET-BaF3) | Structure (SMILES) | IC50 (wild-type BaF3) |
| --- | --- | --- | --- |
| 1190 nM | 1490 nM | CN1CCN(Cc2ccc(C(=O)Nc3cc(Oc4nc(-c5ccc(O)cc5)nc5cc[nH]c45)ccc3Cl)cc2C(F)(F)F)CC1 [III-k-9] | 1650 nM |
| 451 nM | 496 nM | CN1CCN(Cc2ccc(C(=O)Nc3cc(Oc4nc(-c5ccc(N)cc5)nc5cc[nH]c45)ccc3Cl)cc2C(F)(F)F)CC1 [III-k-11] | 1290 nM |
| 1240 nM | 1710 nM | Cc1ccc(C(=O)Nc2ccc(CN3CCN(C)CC3)c(C(F)(F)F)c2)cc1Oc1nc(-c2ccoc2)nc2cc[nH]c12 [III-m-8] | 4100 nM |
| 1250 nM | 3050 nM | Cc1ccc(C(=O)Nc2ccc(CN3CCN(C)CC3)c(C(F)(F)F)c2)cc1Oc1nc(-c2cccnc2)nc2ccn(C)c12 [III-m-9] | 1440 nM |
| 544 nM | 1050 nM | Cc1ccc(C(=O)Nc2ccc(CN3CCN(C)CC3)c(C(F)(F)F)c2)cc1Oc1nc(-c2ccncc2)nc2ccn(C)c12 [III-m-10] | 623 nM |
| 597 nM | 854 nM | Cc1ccc(C(=O)Nc2ccc(CN3CCN(C)CC3)c(C(F)(F)F)c2)cc1Oc1ncnc2ccn(C)c12 [III-m-22] | > 10000 nM |
| 515 nM | 477 nM | Cc1ccc(C(=O)Nc2ccc(CN3CCN(C)CC3)c(C(F)(F)F)c2)cc1Oc1nc(N2CCN(C)CC2)nc2ccn(C)c12 [III-m-23] | 464 nM |
| 1320 nM | 2900 nM | Cc1ccc(C(=O)Nc2ccc(CN3CCN(C)CC3)c(C(F)(F)F)c2)cc1Oc1nc(-c2ccc(O)cc2)nc2cc[nH]c12 [III-m-26] | 4100 nM |
| 1400 nM | 1500 nM | Cc1ccc(C(=O)Nc2ccc(CN3CCN(C)CC3)c(C(F)(F)F)c2)cc1Oc1nc(-c2ccsc2)nc2cc[nH]c12 [III-m-27] | 34500 nM |
| 17.4 nM | 13.4 nM | CN1CCN(Cc2ccc(NC(=O)c3cc(Oc4nc(-c5ccncc5)nc5cc[nH]c45)ccc3Cl)cc2C(F)(F)F)CC1 [III-o-2] | 1290 nM |
| 1280 nM | 1330 nM | CN1CCN(Cc2ccc(NC(=O)c3cc(Oc4nc(-c5cccnc5)nc5ccn(C)c45)ccc3Cl)cc2C(F)(F)F)CC1 [III-o-3] | 1300 nM |
| 449 nM | 672 nM | CN1CCN(Cc2cc(NC(=O)c3cccc(Oc4nc(-c5ccncc5)nc5cc[nH]c45)c3)cc(C(F)(F)F)c2)CC1 [III-p-2] | > 10000 nM |
| 1330 nM | 1540 nM | Cc1ccc(C(=O)Nc2cc(CN3CCN(C)CC3)cc(C(F)(F)F)c2)cc1Oc1nc(-c2cccnc2)nc2cc[nH]c12 [III-q-1] | 1430 nM |
